According to patent publication US20230031009A1, “TREATMENT FOR CHEMOBRAIN” (YALE UNIVERSITY, priority 2020, published 2023):
Entries after “also recorded” stand apart in the source; their conditions may differ.

What was measured:
Assay type in all cases: in vivo, mouse
female C57BL/6 mice [1] = test: Open-field exploration (OFE): locomotor activity and anxiety (thigmotaxis)
Method: Seven-week-old female C57BL/6 mice were purchased from Charles River (Wilmington, Mass., USA) and allowed to habituate to the facility for 7 days, followed by 3 days of handling before the start of the experiment. Mice were randomly assigned into groups, with all groups represented in each cage. […]
Behavioral experiments were adapted from a published protocol (35). Data were analyzed blinded to the experimental conditions. […]
For the OFE task, each mouse was allowed to explore the arena for 10 min. The camera footage was then analyzed using ToxTrac, a published program for the total distance moved and time spent in the peripheral versus the central areas (36). For the DOR task, pairs of 50-mL tubes filled with corn cob bedding were taped cap-down to pre-determined positions in the arena. […] The camera footage was then analyzed for bouts of interactions with the tubes. […] Casual touching of the tubes in passing, or leaning onto the tubes to look around were not counted. The preference index for the displaced object was calculated as 100*(time spent with displaced object)/(total time spent with both displaced and familiar objects). The preference index for the familiar object was similarly calculated. […]

female C57BL/6 mice [2] = test: Displaced object recognition (DOR) task in paclitaxel-induced model of cognitive impairment; conditions: for preference for the displaced object (DOR task): saline and paclitaxel 4×20 mg/kg, 20 mg/kg
Method: (§1) Seven-week-old female C57BL/6 mice were purchased from Charles River (Wilmington, Mass., USA) and allowed to habituate to the facility for 7 days, followed by 3 days of handling before the start of the experiment. Mice were randomly assigned into groups, with all groups represented in each cage. Depending on the treatment group, lithium chloride (Sigma-Aldrich, 12.8 mg/kg in 0.9% saline), chelerythrine chloride (Cayman Chemical, 2 mg/kg in 0.4% DMSO in saline), or the appropriate vehicle was administered intraperitoneally 1 h before injection of vehicle (20% 50:50 Cremophor EL: ethanol, 80% saline) or paclitaxel (Cayman Chemical, 20 mg/kg in 20% 50:50 Cremophor EL: ethanol, 80% saline) to induce cognitive impairment. Each mouse received a total of 4 pairs of injections over 8 days. During and after injections, mice were weighed daily and checked for general health and any sign of pain or distress.
Behavioral experiments were adapted from a published protocol (35). Data were analyzed blinded to the experimental conditions. Open-field exploration (OFE) and displaced object recognition (DOR) tasks were carried out over two consecutive days (FIG. 4.1). The experimental arena was a 35×70×35 cm opaque, white Plexiglas chamber. The arena was covered with ˜1 cm of standard corn cob bedding. […]
For the OFE task, each mouse was allowed to explore the arena for 10 min. The camera footage was then analyzed using ToxTrac, a published program for the total distance moved and time spent in the peripheral versus the central areas (36). For the DOR task, pairs of 50-mL tubes filled with corn cob bedding were taped cap-down to pre-determined positions in the arena. […] The camera footage was then analyzed for bouts of interactions with the tubes. […] Casual touching of the tubes in passing, or leaning onto the tubes to look around were not counted. The preference index for the displaced object was calculated as 100*(time spent with displaced object)/(total time spent with both displaced and familiar objects). The preference index for the familiar object was similarly calculated.

[3] = Body weight during and after paclitaxel injections
Method: as §1

[4] = system: granule cells in the dentate gyrus of the hippocampus; test: Golgi-Cox staining and Sholl analysis of hippocampal neurons; conditions: 30 DPI
Method: (§2) Golgi-Cox staining solutions were prepared in advance, according to a published protocol (37). For tissue collection, each mouse was first anesthetized for ˜30 s with […] isoflurane, and then quickly decapitated with scissors. The skull was opened, and the brain was extracted and washed briefly in ice-cold 1× phosphate-buffered saline solution (PBS, AmericanBio). A razor blade was then used to dissect the brain into two hemispheres along the medial longitudinal fissure. One hemisphere was immediately dropped into a 25-mL scintillation vial containing 10 mL of impregnation stock solution. The other hemisphere was rapidly dissected into the cerebellum, hippocampus, frontal cortex, and midbrain, snap-frozen in liquid nitrogen, and then subsequently stored at −80° C. until further use.
Golgi-Cox staining was performed according to a published protocol (37). Briefly, the samples were impregnated with a potassium dichromate and mercuric chloride solution at room temperature for 7 days, followed by immersion in a cryoprotection solution for 4 days, and then sectioned into […] frontal slices with a vibratome. The Golgi Atlas of the Postnatal Mouse Brain was used as the reference to identify the section position of the slices (38). […] Spine density was quantified as the number of protrusions on dendritic branches per μm dendrite length

[5] = system: layers 2/3 cortical pyramidal neurons; test: Golgi-Cox staining and Sholl analysis of cortical neurons
Method: as §2
Golgi-Cox staining was performed according to a published protocol (37). Briefly, the samples were impregnated with a potassium dichromate and mercuric chloride solution at room temperature for 7 days, followed by immersion in a cryoprotection solution for 4 days, and then sectioned into […] frontal slices with a vibratome. The Golgi Atlas of the Postnatal Mouse Brain was used as the reference to identify the section position of the slices (38). Slices corresponding to frontal sections 10 and 11 in the atlas were selected for imaging the hippocampus and the parietal cortex. Slices corresponding to frontal sections 4 and 5 were selected for imaging the prefrontal cortex. The selected slices were mounted on 0.3% gelatin-coated slides, developed and dehydrated through a series of increasing alcohol concentrations, then with xylene, and finally mounted in Eukitt solution (Sigma Aldrich) for imaging. Z-stack images of different regions, including the dentate gyrus and the frontal cortex, were collected using a Zeiss LSM 710 Duo microscope with 20× and 60× objectives. […] Spines were imaged from basal dendritic branches at least […] away, and apical dendritic branches at least […] away from the cell soma. Scholl analysis, total dendritic length, number of branch points, and spine density were performed with ImageJ using the Simple Neurite Tracer plugin (39). Spine density was quantified as the number of protrusions on dendritic branches per μm dendrite length

PKCα = test: Western blot of brain tissue for PKCα
Method: as §2
(§3) Frozen tissues were thawed in RIPA buffer containing protease inhibitor, phenylmethylsulfonyl fluoride (PMSF), and sodium orthovanadate (Santa Cruz), homogenized with a polytron, and then spun down twice at 13000 rpm, 4° C. to remove cell debris. Protein concentration was quantified using Pierce BCA protein assay kit (ThermoFisher Scientific) according to the manufacturer's instruction. Western blots were performed using the NuPAGE system (ThermoFisher Scientific) and PVDF membrane with the Biorad wet transfer system (Bio-Rad Laboratories). Approximately 20 μg total protein was loaded into each lane. Information about the antibodies used is included in Supp.

pMARCKS (S152/156) = test: Western blot of brain tissue for pMARCKS; conditions: cortex, 24 h after paclitaxel injection
Method: as §2
as §3, with “Information about the antibodies used is included in Supp.” left out

[6] = system: InsP3R1, NCS1, phospholipase C (PLC-β1); test: Western blot of brain tissue for other InsP3R pathway proteins; conditions: 30 DPI, paclitaxel
Method: as §2
as §3, with “Information about the antibodies used is included in Supp.” left out

[7] = medial prefrontal cortex, comparison among 4 groups
[8] = saline/paclitaxel vs the other three groups

SMILES: COc1ccc2c(c[n+](C)c3c4cc5c(cc4ccc23)OCO5)c1OC [chelerythrine, chelerythrine chloride]
- locomotor activity and anxiety (total distance moved, thigmotaxis) (female C57BL/6 mice [1]; chelerythrine groups vs other groups, 4 DPI and 22 DPI): no differences

SMILES: CC(=O)O[C@H]1C(=O)[C@@]2(C)[C@H]([C@H](OC(=O)c3ccccc3)[C@]3(O)C[C@H](OC(=O)[C@H](O)[C@@H](NC(=O)c4ccccc4)c4ccccc4)C(C)=C1C3(C)C)[C@]1(OC(C)=O)CO[C@@H]1C[C@@H]2O [paclitaxel]
- DOR task performance (female C57BL/6 mice [2]; 4×20 mg/kg paclitaxel, after optimization, time not stated): sufficient to impair DOR task performance without additional side effects
- preference for the displaced object (DOR task) (female C57BL/6 mice [2]; 5 DPI): no discrimination between the two objects; also recorded: did not discriminate between the objects; also recorded: impaired short-term spatial memory acquisition; also recorded: no preference for either object
- preference for the displaced object (DOR task) (female C57BL/6 mice [2]; 23 DPI): did not discriminate between the objects; also recorded: impaired short-term spatial memory acquisition; also recorded: persisted up to 23 DPI
- locomotor activity and anxiety (total distance, thigmotaxis) (female C57BL/6 mice [1]; mouse, in vivo, 20 mg/kg): neither impaired locomotor activity nor caused increased anxiety
- body weight loss ([3]; after 2 paclitaxel injections, normalized to first day of injection (FIG. S1)): 5-10%
- body weight loss ([3]; during injections, normalized to first day of injection (FIG. S3)): approximately 5%
- weight loss, comparison among groups ([3]; over the injection duration): No significant differences; also recorded: No significant weight loss
- total dendritic length ([4]; saline and paclitaxel vs other groups): significant reduction
- dendritic complexity (Sholl analysis) ([4]; saline and paclitaxel vs saline/vehicle, particularly 20-90 μm from the soma): reduced dendritic arborization; also recorded: substantial reduction in dendritic complexity
- total dendritic length ([5]; frontal cortex, saline and paclitaxel vs other groups, 30 DPI): significant reduction
- dendritic complexity (Sholl analysis) ([5]; frontal cortex, saline and paclitaxel, 30 DPI): significant reduction in dendritic complexity
- basal dendrites: complexity (Sholl analysis) [5, 7]: no significant differences; also recorded: largely spared; also recorded: not observed in basal dendrites
- basal dendritic length [5, 7]: no significant differences
- basal spine density [5, 7]: no significant differences
- apical dendrites: dendritic arborization (Sholl analysis) ([5]; saline/paclitaxel vs saline/vehicle, particularly 110-230 μm): reduced dendritic arborization; also recorded: primarily due to differences in apical dendrites
- apical dendritic length [5, 8]: significant reduction
- apical spine density [5, 8]: significant reduction
- PKCα protein level (PKCα; cortex, 30 DPI (chronic), 4×20 mg/kg paclitaxel): upregulation
- PKCα protein level (PKCα; cortex, 24 h after a single 20 mg/kg paclitaxel injection (acute)): upregulation
- PKCα protein level (PKCα; hippocampus, 24 h after a single 20 mg/kg paclitaxel injection (acute)): upregulation
- pMARCKS (S152/156) level (pMARCKS (S152/156)): trend towards increased pMARCKS
- levels of other InsP3R pathway proteins (InsP3R1, NCS1, PLC-β1) [6]: No changes
